Reference: US6177475A, “Methods of using integrin modulators for treatment of inflammation” (priority 1997, dated 2001)

Legend:
[1] = system: MT-2 cells / K562/VCAM-1 cells (HTLV-I); experiment: Syncytium formation of HTLV-I-infected MT-2 cells with K562/VCAM-1 cells; type: cell-based; details: 3.4 micromoles per liter; higher concentrations not tested
Excerpt: MT-2 cells harbor the complete genome of human T cell lymphotropic virus type 1 (HTLV-I), and they transmit the virus to susceptible uninfected cells in cocultures. The transmission manifests itself as fusion of MT-2 cells with the uninfected cells, followed by syncytium formation. K562 cells transfected with VCAM-1, a ligand of the integrin VIA-4, were used as a fusion partner for MT-2 cells. MT-2 and K562/VCAM-1 cells were washed and resuspended in complete RPMI medium at a density of 2×10^6 /ml. MT2 cells were seeded into flat-bottom 96-well microtiter plates (100 microliters per well). Serial dilutions of Ajoene or of the disintegrin kistrin (final concentration) were introduced into the wells, and the plate was incubated for 30 min prior to addition of 100 microliters of K562/VCAM-1 cells. The plates were then incubated for 4 h before scoring syncytium formation.

[2] = system: lymphocyte infiltration into the salivary glands; experiment: Spontaneous development of autoimmune sialoadenitis in NOD mice (lymphocyte infiltration of salivary glands); type: in vivo, Nonobese diabetic (NOD) mice; details: 0.3 mg/kg i.p. every other day, 9 weeks
Excerpt: (§1) Nonobese diabetic (NOD) mice are characterized by spontaneous development of insulitis (similar to human insulin-dependent diabetes) and sialoadenitis (similar to Sjogren's disease). The development of autoirmune inflammation in these animals involves several integrin receptors, including VLA-4, CR3, and LFA-1 (CD11a/CD18). Lymphocyte infiltration into the pancreata is mediated primarily by VIA-4, whereas the predominant mechanism of lymphocyte recruitment into the salivary glands involves LFA-1.
(§2) NOD mice (age, 3 to 4 weeks old; average body weight, 10 g) were divided into three groups. Experimental animals received intraperitoneal injections of disintegrins (0.3 mg/kg per animal every other day) for 9 weeks. Control mice were administered with the vehicle.
(§3) The mice were sacrificed and subjected to autopsy. The pancreata and salivary glands were removed and frozen (-70° C.). Thin sections (5 micrometer thick) of these organs were fixed in acetone, stained with hematoxylin and eosin, and evaluated microscopically for lymphocyte infiltration (Tables 6 and 7).

[3] = system: lymphocyte infiltration into the pancreata; experiment: Spontaneous development of autoimmune diabetes in NOD mice (lymphocyte infiltration of pancreata); type: in vivo, Nonobese diabetic (NOD) mice; details: 0.3 mg/kg i.p. every other day, 9 weeks
Excerpt: as §1, §2, §3

[4] = (+) 1-3 small foci involving only one duct
[5] = (+++) 2 or more foci involving several ducts
[6] = (-) no infiltrating lymphocytes
[7] = pancreas, (+) 1-3 infiltrated islets
[8] = pancreas, (-) no infiltrating lymphocytes

Substance: Kistrin
- inhibition of syncytium formation [1]: ~ 40%
- Number of mice with infiltration score (+) [2, 4]: 2 mice
- Percentage of mice with infiltration score (+) [2, 4]: 40.0%
- Number of mice with infiltration score (++) ([2]; (++) small foci and/or 1 large focus involving several ducts): 0 mice
- Number of mice with infiltration score (+++) [2, 5]: 1 mice
- Percentage of mice with infiltration score (+++) [2, 5]: 20.0%
- Number of mice with infiltration score (-) [2, 6]: 2 mice
- Percentage of mice with infiltration score (-) [2, 6]: 40.0%
- development of large infiltrates in pancreatic islets [3]: completely prevented the development of large infiltrates
- proportion of animals with mild infiltration of pancreatic islets [3]: increased the proportion of animals with mild infiltration of pancreatic islets
- Number of mice with infiltration score (+) [3, 7]: 2 mice
- Percentage of mice with infiltration score (+) [3, 7]: 40%
- Number of mice with infiltration score (++) ([3]; pancreas, (++) 4 islets with moderate infiltration and/or 1-2 islets with large infiltrates): 0 mice
- Number of mice with infiltration score (+++) ([3]; pancreas, (+++) 3 or more large infiltrates): 0 mice
- Number of mice with infiltration score (-) [3, 8]: 3 mice
- Percentage of mice with infiltration score (-) [3, 8]: 60%
